Measured values reported in patent publication US20230265479A1 (priority 2020, published 2023).

Assays:
[1] = system: Firefly Luciferase reporter gene driven by the C3P3-G2 system in HEK-293 cells; type: cell-based, human
[2] = system: Firefly Luciferase reporter gene driven by the C3P3-G1 system in HEK-293 cells; type: cell-based, human
EIF2AK2 = EIF2AK2 (Homo sapiens, UniProt P19525); conditions: binds ATP-binding site; inhibits RNA-induced EIF2AK2 autophosphorylation (Jammi et al. 2003); cited from earlier work
EIF2AK2, sequence (P19525 whole entry): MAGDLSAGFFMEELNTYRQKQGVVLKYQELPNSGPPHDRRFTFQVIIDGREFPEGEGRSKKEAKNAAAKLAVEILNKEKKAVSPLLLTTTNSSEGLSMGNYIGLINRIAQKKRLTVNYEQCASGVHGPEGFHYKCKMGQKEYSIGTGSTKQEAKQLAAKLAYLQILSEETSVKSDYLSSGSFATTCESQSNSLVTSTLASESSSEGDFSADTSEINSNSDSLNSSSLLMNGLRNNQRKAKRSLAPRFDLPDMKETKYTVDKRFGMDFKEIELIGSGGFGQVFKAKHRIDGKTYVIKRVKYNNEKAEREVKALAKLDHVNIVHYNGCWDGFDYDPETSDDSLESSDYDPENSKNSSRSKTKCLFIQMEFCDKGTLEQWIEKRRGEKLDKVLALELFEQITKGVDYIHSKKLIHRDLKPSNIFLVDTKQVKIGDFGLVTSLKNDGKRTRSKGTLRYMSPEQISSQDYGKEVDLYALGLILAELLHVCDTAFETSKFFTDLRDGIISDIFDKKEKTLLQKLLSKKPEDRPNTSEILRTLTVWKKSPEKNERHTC

Compound: O=C1Nc2ccc3ncsc3c2/C1=C/c1cnc[nH]1 [CAS 608512-97-6]
- Maximum efficacy, relative ratio vs. negative control cells [1]: 1.67 fold
- Maximum efficacy, relative ratio vs. negative control cells [2]: 1.31 fold
- IC50 (EIF2AK2): 0.21 µM
